The values below come from patent US11225469B2, “Inhibitors of phosphoglycerate dehydrogenase (PHGDH) and uses thereof” (Whitehead Institute for Biomedical Research, priority 2015, dated 2022).

By IC50 is commonly meant the concentration that inhibits the measured activity by half.

The target of this assay is PHGDH (Homo sapiens (Human), UniProt O43175). Briefly: PHGDH inhibition, coupled assay with PSAT1/PSPH and diaphorase/resazurin readout. The assay is classed as biochemical. The settings on record: Table E9; mixture with PSAT1, PSPH; diaphorase/resazurin reporter. (The colour change of resazurin is a common sign of viable cells or microbes.)
Chain of PHGDH (O43175 whole entry): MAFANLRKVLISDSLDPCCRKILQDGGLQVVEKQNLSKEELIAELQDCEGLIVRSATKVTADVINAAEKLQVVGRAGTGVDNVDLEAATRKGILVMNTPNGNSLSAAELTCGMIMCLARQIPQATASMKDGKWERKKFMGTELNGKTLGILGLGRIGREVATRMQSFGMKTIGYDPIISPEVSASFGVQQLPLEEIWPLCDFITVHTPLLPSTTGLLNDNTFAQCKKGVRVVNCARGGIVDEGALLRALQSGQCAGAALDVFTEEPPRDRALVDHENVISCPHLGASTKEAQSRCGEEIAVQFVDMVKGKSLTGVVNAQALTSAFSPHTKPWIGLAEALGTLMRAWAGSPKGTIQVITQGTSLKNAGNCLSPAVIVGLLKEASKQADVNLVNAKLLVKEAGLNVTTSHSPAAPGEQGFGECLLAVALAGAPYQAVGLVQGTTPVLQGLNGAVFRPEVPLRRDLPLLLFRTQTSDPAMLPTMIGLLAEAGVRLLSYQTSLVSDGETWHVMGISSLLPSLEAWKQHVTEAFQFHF

Description: Compounds of the invention were assayed for inhibition of the activity phosphoglycerate dehydrogenase (PHGDH). The compounds were assayed in a mixture comprising PHGDH, PSAT1, PSPH, NADH, and glutamate. Diaphorase and resazurin were used as a fluorescent reporter system.
In this endogenous pathway coupled assay, the production of NADH by PHGDH was measured through the diaphorasemediated reduction of resazurin (See, e.g., Chakraborty, S., Sakka, M., Kimura, T. & Sakka, K. “Characterization of a dihydrolipoyl dehydrogenase having diaphorase activity of Clostridium kluyveri.” BioscL Biotechnol. Biochem. 72, 982-988 (2008)).
PHGDH assay buffer contained 50 mM TEA pH 8.0, 10 mM MgCl2, 0.05% BSA, and 0.01% Tween-20. PHGDH enzyme buffer consisted of assay buffer with 20 nM PHGDH and 0.2 mg/mL diaphorase. PHGDH substrate buffer contained 0.3 mM NAD 1.25 mM glutamate, 0.1 mM 3-phosphoglycerate, 0.2 mM resazurin, 1 μM PSAT1, and 1 μM PSPH. qHTS was performed in 1536-well plates dispensed with a BioRAPTR FRD. Each well contained equal volumes of substrate buffer and assay buffer. Plates were read at 0 minutes and 20 minutes at room temperature with a ViewLux uHTS Microplate Imager (PerkinElmer). Follow-up assays were performed in black 384-well plates (Greiner) in 20 μL of enzyme buffer to which compounds were added in dose-response with an HP D300 digital dispenser (Hewlett-Packard), followed by addition of 20 μL of substrate buffer. Plates were incubated at room temperature (25° C.) and read at 0 and 20 minutes with a Spectramax M5 plate reader (Molecular Devices) in fluorescence intensity mode with a λex=550 nm and λem=600 nm (emission cutoff=590 nm).

Regarding `Cc1cc(C)nc(NC(=S)N2CCN(c3nccc4occc34)CC2)c1` [Compound 103], the IC50 lay in the range of 10 to 20 µM.
Under `Cc1cc(C)nc(NC(=S)N2CCN(c3nc(C)cnc3C)CC2)c1` [Compound 104] stands ≥ 20 µM; under `Cc1cc(C)nc(NC(=S)N2CCN(c3nc4ccccc4o3)CC2)c1` [Compound 105], 10 to 20 µM.
The figure for `Cc1cc(C)nc(NC(=S)N2CCN(c3nc4ccccc4s3)CC2)c1` [Compound 106] is 10 to 20 µM; for `Cc1cc(C)nc(NC(=S)N2CCN(c3nnc(C(F)(F)F)s3)CC2)c1` [Compound 107] it is 10 to 20 µM; for `Cc1cc(C)nc(NC(=S)N2CCN(c3nsc4ccccc34)CC2)c1` [Compound 108] it is 10 to 20 µM.
The figure for `Cc1cc(C)nc(NC(=S)N2CCN(c3ccc([S+](C)(=O)[O-])cc3F)CC2)c1` [Compound 109] is ≥ 20 µM; for `Cc1cc(C)nc(NC(=S)N2CCN(c3ccc(C(F)(F)F)cc3[N+](=O)[O-])CC2)c1` [Compound 110] it is 5 to 10 µM; for `Cc1cc(C)nc(NC(=S)N2CCN(c3ncc(C(F)(F)F)cc3Cl)CC2)c1` [Compound 111] it is 5 to 10 µM.
As to `Cc1cc(C)nc(NC(=S)N2CCN(c3ncccc3C(F)(F)F)CC2)c1` [Compound 113], the half-maximal inhibitory concentration (IC50) lay within 10 to 20 µM.
Take `Cc1cc(C)nc(NC(=S)N2CCN(c3ccc(Cl)cc3[S+](C)(=O)[O-])CC2)c1` [Compound 115]: the IC50 fell in the range of 10 to 20 µM.
In the case of `Cc1cc(C)nc(NC(=S)N2CCN(c3cccc(C(F)(F)F)n3)CC2)c1` [Compound 116], the half-inhibitory concentration (IC50) lay in the range of 5 to 10 µM.
Take `Cc1cc(C)nc(NC(=S)N2CCN(c3nccc(C(F)(F)F)n3)CC2)c1` [Compound 117]: the half-maximal inhibitory concentration (IC50) was < 5 µM.
Under `Cc1cc(C)nc(NC(=S)N2CCN(c3cnccn3)CC2)c1` [Compound 118] stands ≥ 20 µM; under `Cc1cc(C)nc(NC(=S)N2CCN(c3ncnc4sccc34)CC2)c1` [Compound 120], ≥ 20 µM; under `Cc1cc(C)nc(NC(=S)N2CCN(c3ncccc3C#N)CC2)c1` [Compound 121], ≥ 20 µM.
Under `Cc1cc(C)nc(NC(=S)N2CCN(c3cc(C(F)(F)F)nc4ccccc34)CC2)c1` [Compound 122] stands < 5 µM; under `Cc1cc(C)nc(NC(=S)N2CCN(c3ccc([N+](=O)[O-])c4cccnc34)CC2)c1` [Compound 123], ≥ 20 µM; under `Cc1cc(C)nc(NC(=S)N2CCN(c3ccc4ncccc4c3[N+](=O)[O-])CC2)c1` [Compound 124], 10 to 20 µM.
Regarding `Cc1cc(C)nc(Nc2nnc(N3CCN(c4cccc(C(F)(F)F)c4)CC3)s2)c1` [Compound 125], the 50% inhibitory concentration (IC50) was ≥ 20 µM.
For `Cc1ccnc(NC(=S)N2CCN(c3cccc(C(F)(F)F)c3)CC2)n1` [Compound 126], the IC50 was in the range of 10 to 20 µM.
Under `Cc1cc(NC(=S)N2CCN(c3cccc(C(F)(F)F)c3)CC2)nc2ccccc12` [Compound 127] stands ≥ 20 µM.
Under `FC(F)(F)c1cccc(N2CCN(C(=S)Nc3cnccn3)CC2)c1` [Compound 128] stands ≥ 20 µM; under `Cc1cc(C)nc(NC(=S)N2CCN(c3ccc4cn(C)nc4c3)CC2)c1` [Compound 129], ≥ 20 µM; under `COc1cc(NC(=S)N2CCN(c3cccc(C(F)(F)F)c3)CC2)nc2ccccc12` [Compound 130], 10 to 20 µM.
Under `Cc1cc(C)nc(NC(=S)N2CCN(c3nncs3)CC2)c1` [Compound 131] stands ≥ 20 µM.
As to `Cc1cc(C)nc(NC(=S)N2CCN(c3nccc4ccccc34)CC2)c1` [Compound 132], the concentration for half-maximal inhibition (IC50) fell in the range of 10 to 20 µM.
Under `Cc1cc(C)nc(NC(=S)N2CCN(c3ccc(-c4ccccc4)cc3)CC2)c1` [Compound 133] stands ≥ 20 µM.
The figure for `Cc1cc(C)nc(NC(=S)N2CCN(c3cccc(OC(F)(F)F)c3)CC2)c1` [Compound 134] is 5 to 10 µM.
As to `Cc1cc(C)nc(NC(=S)N2CCN(c3cccc(OC(F)F)c3)CC2)c1` [Compound 135], the half-inhibitory concentration (IC50) was < 5 µM.
The figure for `COc1cc(N2CCN(C(=S)Nc3cc(C)cc(C)n3)CC2)cc(C(F)(F)F)c1` [Compound 136] is 10 to 20 µM.
Under `Cc1cc(C)nc(NC(=S)N2CCN(c3cc(Cl)cc(C(F)(F)F)c3)CC2)c1` [Compound 137] stands 10 to 20 µM; under `Cc1cc(C)nc(NC(=S)N2CCN(c3cccc([S+](C)[O-])c3)CC2)c1` (stereo not drawn) [Compound 139], ≥ 20 µM.
Turning to `Cc1cc(C)nc(NC(=S)N2CCN(c3cccc([S+](C)(=O)[O-])c3)CC2)c1` [Compound 140], the half-inhibitory concentration (IC50) was ≥ 20 µM.
The figure for `Cc1ccnc(NC(=S)N2CCN(c3cc(F)cc(Cl)c3)CC2)c1` [Compound 141] is < 5 µM; for `Cc1cc(C)nc(NC(=S)N2CCN(c3cc(Br)cc(C(F)(F)F)c3)CC2)c1` [Compound 142] it is 5 to 10 µM; for `FC(F)(F)c1cccc(N2CCN(C(=S)Nc3ncnc4ccccc34)CC2)c1` [Compound 143] it is 5 to 10 µM.
With `CN(C)c1ccc2nc(NC(=S)N3CCN(c4cccc(C(F)(F)F)c4)CC3)sc2c1` [Compound 144], the half-maximal inhibitory concentration (IC50) is ≥ 20 µM.
The figure for `Cc1cc(C)nc(NC(=S)N2CCN(c3cc4ccccc4cn3)CC2)c1` [Compound 145] is ≥ 20 µM; for `Cc1cc(C)nc(NC(=S)N2CCN(c3cncc4ccccc34)CC2)c1` [Compound 146] it is 10 to 20 µM.
Under `Cc1cc(C)nc(NC(=S)N2CCN(c3cccc4cnccc34)CC2)c1` [Compound 147] stands 10 to 20 µM; under `Cc1cc(C)nc(NC(=S)N2CCN(c3ccc4cnccc4c3)CC2)c1` [Compound 148], 10 to 20 µM.
As for `Cc1cc(C)nc(NC(=S)N2CCN(c3cccc4ccncc34)CC2)c1` [Compound 149], the IC50 was 10 to 20 µM.
In the case of `Cc1cc(C)nc(NC(=S)N2CCN(c3cccc4nccn34)CC2)c1` [Compound 150], the IC50 is ≥ 20 µM.
For `O=C(Nc1cc2ccccc2cn1)N1CCN(c2cccc(C(F)(F)F)c2)CC1` [Compound 152], the IC50 is ≥ 20 µM.
With `Cc1cc(C)nc(NC(=S)N2CCN(c3cc(C(F)(F)F)nc(C)n3)CC2)c1` [Compound 153], the IC50 was in the range of 10 to 20 µM.
Under `Cc1cc(C)nc(NC(=S)N2CCN(C3=Nc4ccccc4Oc4ccccc43)CC2)c1` [Compound 154] stands ≥ 20 µM; under `Cc1cc(C)nc(NC(=S)N2CCN(c3cccc4[nH]ccc34)CC2)c1` [Compound 155], 10 to 20 µM.
Take `Cc1cc(C)nc(NC(=S)N2CCN(c3nccc4ccsc34)CC2)c1` [Compound 156]: the 50% inhibitory concentration (IC50) was ≥ 20 µM.
The figure for `Cc1cc(C)nc(NC(=S)N2CCN(c3cncs3)CC2)c1` [Compound 157] is ≥ 20 µM; for `Cc1cc(C)nc(NC(=S)N2CCN(c3cc(C(F)(F)F)nc4ccc(C(F)(F)F)cc34)CC2)c1` [Compound 158] it is 5 to 10 µM.
Under `Cc1cc(C)nc(NC(=S)N2CCN(c3ccc4nonc4c3)CC2)c1` [Compound 159] stands ≥ 20 µM; under `Cc1cc(C)nc(NC(=S)N2CCN(c3cnc4nccn4c3)CC2)c1` [Compound 160], ≥ 20 µM.
The figure for `Cc1cc(C)nc(NC(=S)N2CCN(c3ccc4nncn4c3)CC2)c1` [Compound 161] is ≥ 20 µM; for `Cc1cc(C)nc(NC(=S)N2CCN(c3ccc4nccn4c3)CC2)c1` [Compound 162] it is ≥ 20 µM.
Regarding `Cc1cc(C)nc(NC(=S)N2CCN(c3ccc4nsnc4c3)CC2)c1` [Compound 163], the IC50 lay in the range of 10 to 20 µM.
For the molecule `Cc1cc(C)nc(NC(=S)N2CCN(c3ccc4occc4c3)CC2)c1` [Compound 164], the IC50 fell in the range of 10 to 20 µM.
The figure for `Cc1cc(C)nc(NC(=S)N2CCN(c3ccc(Cl)nn3)CC2)c1` [Compound 165] is ≥ 20 µM; for `Cc1cc(C)nc(NC(=S)N2CCN(c3ccsc3)CC2)c1` [Compound 166] it is ≥ 20 µM.
Under `Cc1cc(C)nc(NC(=S)N2CCN(c3ccc4c(c3)OCO4)CC2)c1` [Compound 167] stands ≥ 20 µM; under `Cc1cc(C)nc(NC(=S)N2CCN(Cc3cccc4ccccc34)CC2)c1` [Compound 168], ≥ 20 µM; under `Cc1ccnc(NC(=S)N2CCN(c3cc(Cl)cc(Cl)c3)CC2)c1` [Compound 169], 5 to 10 µM.
For the molecule `Cc1ccnc(NC(=S)N2CCN(c3cc(C(F)(F)F)cc(C(F)(F)F)c3)CC2)c1` [Compound 170], the IC50 is 5 to 10 µM.
The figure for `Cc1ccnc(NC(=S)N2CCN(c3cccc(Cl)c3Cl)CC2)c1` [Compound 171] is 5 to 10 µM.
The figure for `Cc1ccnc(NC(=S)N2CCN(c3ccc(Cl)cc3Cl)CC2)c1` [Compound 172] is 5 to 10 µM.
The figure for `Cc1ccnc(NC(=S)N2CCN(c3ccc(Cl)c(Cl)c3)CC2)c1` [Compound 173] is 5 to 10 µM.
Consider `Cc1ccnc(NC(=S)N2CCN(c3ccc(C(F)(F)F)cc3[N+](=O)[O-])CC2)c1` [Compound 174], for which the IC50 fell in the range of 5 to 10 µM.
For the molecule `Cc1ccnc(NC(=S)N2CCN(c3cccc(C(F)(F)F)n3)CC2)c1` [Compound 175], the IC50 is < 5 µM.
The figure for `Cc1ccnc(NC(=S)N2CCN(c3ncc(C(F)(F)F)cc3Cl)CC2)c1` [Compound 176] is 5 to 10 µM; for `Cc1ccnc(NC(=S)N2CCN(c3ccc4ccccc4n3)CC2)c1` [Compound 177] it is 10 to 20 µM; for `COc1ccnc(NC(=S)N2CCN(c3cc(Cl)cc(Cl)c3)CC2)c1` [Compound 178] it is 5 to 10 µM.
The figure for `COc1ccnc(NC(=S)N2CCN(c3cc(C(F)(F)F)cc(C(F)(F)F)c3)CC2)c1` [Compound 179] is < 5 µM.
The figure for `COc1ccnc(NC(=S)N2CCN(c3cccc(Cl)c3Cl)CC2)c1` [Compound 180] is 5 to 10 µM.
Regarding `COc1ccnc(NC(=S)N2CCN(c3ccc(Cl)cc3Cl)CC2)c1` [Compound 181], the IC50 lay in the range of 10 to 20 µM.
On to `COc1ccnc(NC(=S)N2CCN(c3ccc(Cl)c(Cl)c3)CC2)c1` [Compound 182], for which the concentration for half-maximal inhibition (IC50) was 5 to 10 µM.
The figure for `COc1ccnc(NC(=S)N2CCN(c3ccccc3C(F)(F)F)CC2)c1` [Compound 183] is 5 to 10 µM; for `COc1ccnc(NC(=S)N2CCN(c3cccc(C(F)(F)F)n3)CC2)c1` [Compound 184] it is 5 to 10 µM; for `COc1ccnc(NC(=S)N2CCN(c3ncc(C(F)(F)F)cc3Cl)CC2)c1` [Compound 185] it is 5 to 10 µM.
